Assay results published in patent publication US20200316087A1, “NOVEL COMBINATION THERAPY FOR ANXIETY DISORDERS, EPILEPSY, AND PAIN” (priority 2017, published 2020).
Entries after “also recorded” stand apart in the source; their conditions may differ.

How the values were obtained:
[1] = test system: punished licking (anxiety); assay: Vogel conflict test; type: in vivo; conditions: rats
Description: Experiments are conducted as described in the protocol of Alt et al. (Neuropharmacology 2007, 52, 1482-1487). Experimentally-naive adult male Sprague-Dawley rats (Harlan Industries, Indianapolis, Ind.), weighing between 200 and 300 g, are used as subjects. The rats are housed in Plexiglas cages (4 per cage) and given free access to Lab Diet #5001 for rodents (PMI Nutrition International Inc., St. Louis, Mo.). Water is withheld for 20-24 hours prior to the first training session. A 12-hr light/dark cycle is maintained, and all experimental sessions are conducted during the light phase of the cycle at about the same time each day.
The experiments are conducted using operant behavior test chambers ENV-007 (Med Associates Inc., Georgia, Vt., USA), 30.5×24.1×29.2 cm. […] All events are controlled and licking data is recorded by a Compaq computer running MED-PC Version IV (Med Associates Inc., Georgia, Vt., USA).
Rats are put into the chamber on day 1 and 2 with white noise and the houselight illuminated, and allowed to drink for a total of six minutes after the first lick is made. The six minutes is broken into two components, the first three minutes is recorded as the unpunished component and the second three minutes are recorded as the punished component. […]
The mean number of licks for both the unpunished and punished components are analyzed. […]

[2] = test system: immobility in tail-suspension test; assay: Tail-suspension assay; type: in vivo; conditions: C57Bl/6 mice
Description: Male, C57Bl/6 mice (Envigo, Indianapolis, Ind.) were employed in these experiments. Med Associates Inc. (Fairfax, Vt., USA), apparatus SOF-821 was utilized. The TST was an automated version of published methods in which the tail was secured to a lever on the ceiling of the chamber. The duration of immobility was recorded by a force transducer for a period of 10 min.
Imipramine was dissolved in water.

[3] = test system: human (α2), or rat (α1, α3, α5, γ2L, β3) GABAA receptor subunits; assay: Whole-cell patch-clamp GABA current responses in transfected HEK-293T cells; type: cell-based; conditions: GABA EC3-5, drug concentration 100 nM
Description: Human […] (HEK-293T) were transiently transfected with full-length cDNAs encoding human (α2), or rat (α1, α3, α5, γ2L, β3) GABAA receptor subunits using calcium phosphate precipitation. Positively transfected cells were isolated by utilizing co-transfection of a plasmid encoding a surface antibody (pHook™-1, Invitrogen). 20-52 hours following transfection, cells were mixed with magnetic beads coated with antigen specific for the pHook antibody, isolated with a magnetic stand, and then plated onto coverslips and used for patch-clamp recordings 18-28 hours later.
Current responses to GABA were recorded in the whole-cell configuration, with cells voltage-clamped at −50 mV. The bath solution contained (in mM): 142 NaCl, 8.1 KCl, 6 MgCl2, 1 CaCl2), and 10 HEPES (4-(2-hydroxyethyl)-1-piperazineethanesulfonic acid) with pH=7.4 and osmolarity adjusted to 295-305 mOsm. The electrode (internal) solution consisted of (in mM); 153 KCl, 1 MgCl2, 5 K-EGTA (ethylene glycol-bis (β-aminoethyl ether N,N,N′N′-tetraacetate)), and 10 HEPES with pH=7.4 and osmolarity adjusted to 295-305 mOsm. […] Currents were recorded with an Axon 200B (Foster City, Calif.) patch clamp amplifier. […] Data were analyzed by two-way ANOVA followed by post-hoc Tukey's multiple comparison test. […]

SMILES	anxiolytic-like efficacy in Vogel conflict test [1]	immobility in tail-suspension test ([2]; i.p., 100 mg/kg significantly greater than vehicle, 100 mg/kg)	sedation-like effects ([2]; higher doses tested)	selectivity for α2 and α3 over α1 [3]
C#Cc1ccc2c(c1)C(c1ccccc1)=NCc1c(-c3cnco3)ncn1-2 [KRM-II-82, 5-(8-ethynyl-6-phenyl-4H-benzo[f]imidazo[1,5-a][1,4]diazepin-3-yl)oxazole]	did not produce anxiolytic-like efficacy			
C#Cc1ccc2c(c1)C(c1ccccn1)=NCc1c(-c3cnco3)ncn1-2 [KRM-II-81, 5-(8-ethynyl-6-(pyridin-2-yl)-4H-benzo[f]imidazo[1,5-a][1,4]diazepin-3-yl)oxazole]		slight increase in immobility at the higher doses tested; also recorded: not active	moderate sedation-like effects	selective for α2 and α 3 over α1
